Experimental data: PubChem BioAssay (NCI)
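Assay format: 96-well plates, 48-hour exposure. TGI is the concentration that stops growth completely.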

Legend:
Test in all cases: NCI-60 cell line screen, 48 h
[1] = tested on: EKVX NSCLC
[2] = tested on: DMS 114 small cell lung
[3] = tested on: SNB-75 CNS
[4] = tested on: RPMI-8226 leukemia
[5] = tested on: UACC-257 melanoma
[6] = tested on: OVCAR-8 ovarian
[7] = tested on: HOP-92 NSCLC
[8] = tested on: M14 melanoma
[9] = tested on: DMS 273 small cell lung
[10] = tested on: ACHN renal
[11] = tested on: OVCAR-4 ovarian
[12] = tested on: CCRF-CEM leukemia
[13] = tested on: MALME-3M melanoma
[14] = tested on: HL-60(TB) leukemia
[15] = tested on: SF-295 CNS
[16] = tested on: SNB-19 CNS
[17] = tested on: A549 NSCLC
[18] = tested on: KM12 colon
[19] = tested on: XF 498 CNS
[20] = tested on: SK-MEL-2 melanoma
[21] = tested on: NCI-H226 lung
[22] = tested on: SW-620 colon
[23] = tested on: K-562 leukemia
[24] = tested on: HCT-15 colon
[25] = tested on: SNB-78 CNS
[26] = tested on: TK-10 renal
[27] = tested on: LOX IMVI melanoma
[28] = tested on: SF-539 CNS
[29] = tested on: COLO 205 colon
[30] = tested on: OVCAR-3 ovarian
[31] = tested on: M19-MEL melanoma
[32] = tested on: A498 renal
[33] = tested on: U251 CNS
[34] = tested on: LXFL 529 NSCLC
[35] = tested on: SN12C renal
[36] = tested on: NCI-H460 lung
[37] = tested on: SR leukemia
[38] = tested on: RXF 393 renal
[39] = tested on: SF-268 CNS
[40] = tested on: CAKI-1 renal
[41] = tested on: SK-MEL-5 melanoma
[42] = tested on: UACC-62 melanoma
[43] = tested on: OVCAR-5 ovarian
[44] = tested on: UO-31 renal
[45] = tested on: 786-0 renal
[46] = tested on: HCT-116 colon
[47] = tested on: HOP-18 NSCLC
[48] = tested on: DLD-1 colon
[49] = tested on: SK-OV-3 ovarian
[50] = tested on: NCI-H522 lung
[51] = tested on: IGROV1 ovarian
[52] = tested on: HOP-62 NSCLC
[53] = tested on: KM20L2 colon
[54] = tested on: HT29 colon
[55] = tested on: NCI-H23 lung
[56] = tested on: SK-MEL-28 melanoma
[57] = tested on: HCC-2998 colon
[58] = tested on: MOLT-4 leukemia
[59] = tested on: RXF-631 renal

Measured: TGI

O=C(Nc1nc(=S)c2c(ncn2CCO)[nH]1)c1ccccc1
> 100 µM: [1] | [2] | [3] | [4] | [5] | [6] | [7] | [8] | [9] | [10] | [11] | [12] | [13] | [14] | [15] | [16] | [17] | [18] | [19] | [20] | [21] | [22] | [23] | [24] | [25] | [26] | [27] | [28] | [29] | [30] | [31] | [32] | [33] | [34] | [35] | [36] | [37] | [38] | [39] | [40] | [41] | [42] | [43] | [44] | [45] | [46] | [47] | [48] | [49] | [50] | [51] | [52] | [53] | [54]

COc1cc(C)c(O)c(C(=O)O)c1
> 100 µM: [2] | [3] | [55] | [5] | [6] | [8] | [9] | [10] | [11] | [12] | [13] | [15] | [16] | [17] | [18] | [19] | [56] | [20] | [21] | [22] | [23] | [24] | [25] | [26] | [27] | [29] | [30] | [31] | [32] | [57] | [33] | [34] | [35] | [36] | [37] | [38] | [39] | [40] | [41] | [42] | [43] | [44] | [45] | [46] | [47] | [58] | [48] | [49] | [50] | [51] | [52] | [53] | [54]

O=C1c2ccccc2CC1C1(O)C(=O)Nc2ccccc21 (configuration not stated)
> 100 µM: [1] | [2] | [3] | [55] | [4] | [5] | [6] | [7] | [8] | [9] | [10] | [11] | [13] | [14] | [15] | [16] | [17] | [19] | [56] | [20] | [21] | [22] | [23] | [24] | [25] | [26] | [27] | [28] | [29] | [30] | [31] | [32] | [34] | [35] | [36] | [38] | [59] | [39] | [40] | [41] | [42] | [43] | [44] | [45] | [46] | [58] | [48] | [49] | [50] | [51] | [52] | [53] | [54]

CC(=O)Nc1ccc(/C=C/C(=O)c2sc(-c3nc(C)c(C(=O)/C=C/c4ccc(NC(C)=O)cc4)s3)nc2C)cc1
> 100 µM: [1] | [2] | [55] | [5] | [6] | [8] | [9] | [10] | [11] | [12] | [13] | [14] | [15] | [16] | [17] | [18] | [19] | [56] | [20] | [21] | [22] | [23] | [24] | [25] | [26] | [27] | [28] | [29] | [30] | [31] | [57] | [33] | [34] | [35] | [36] | [37] | [38] | [59] | [40] | [42] | [43] | [44] | [45] | [46] | [58] | [48] | [49] | [50] | [51] | [52] | [53] | [54]
